Test results from patent US20240226049A1, “METHODS OF TREATMENT USING BEMPEDOIC ACID” (Esperion Therapeutics, Inc., priority 2023, published 2024).

How the values were obtained:
[1] = system: statin-intolerant patients with or at high risk of CVD; test: CLEAR OUTCOMES trial (Example 1): effect on LDL-cholesterol, hsCRP, other lipids and glycaemic biomarkers; type: in vivo, human
Text: (§1) The CLEAR OUTCOMES trial was a randomized, placebo-controlled, double-blind trial that enrolled patients at 1250 sites in 32 countries. An independent Data Monitoring Committee reviewed safety and efficacy data during the trial.
(§2) Patients 18 to 85 years of age were eligible for enrollment if they met either of two criteria for increased cardiovascular risk, a prior cardiovascular event (secondary prevention) or clinical features that placed them at high risk for a cardiovascular event (primary prevention). (Nicholls S. Lincoff A M, Bays H E, et al. Rationale and design of the CLEAR-outcomes trial: Evaluating the effect of bempedoic acid on cardiovascular events in patients with statin intolerance. Am Heart J. 2021 May; 235:104-112) All patients provided written informed consent. Patients had to report statin intolerance due to an adverse effect that started or increased during statin therapy and resolved or improved after statin therapy was discontinued. Patients could be enrolled if they tolerated a very low average daily statin dose (e.g., an average daily dose of rosuvastatin <5 mg, atorvastatin <10 mg, simvastatin <10 mg, lovastatin <20 mg, pravastatin <40 mg, fluvastatin <40 mg, or pitavastatin <2 mg). Other lipid-lowering therapies were permitted, including ezetimibe, niacin, bile acid resins, fibrates, and/or proprotein convertase subtilisin kexin type 9 (PCSK9) inhibitors. Full inclusion and exclusion criteria are provided in Nicholls et al. (Am Heart J. 2021).
(§3) Eligible patients entered a 4-week run-in period during which patients were treated with single-blind placebo. If patients were intolerant to placebo treatment or if adherence was <80% by tablet count, they were not eligible for randomization. Patients who successfully completed the run-in period were randomly assigned in a 1:1 ratio to receive bempedoic acid at an oral dose of 180 mg or matching placebo, administered daily. Beginning 6 months after enrollment, the central laboratory notified the investigator if the patient's LDL-cholesterol level was ≥25% higher than baseline. These patients were counseled on healthy dietary guidelines and reminded to take all lipid-regulating medications. If repeat testing confirmed that LDL-cholesterol value met the threshold criteria, the provider could adjust the lipid-lowering treatment regimen per standard of care and local guidelines.
This was an event-driven trial designed to provide at least 90% power to detect a 15% relative risk reduction for the primary composite end point at an overall two-sided significance level of 0.05. The trial required a minimum of 1620 primary composite events with ≥24 months of follow-up for all patients and at least 810 first key secondary end points. The average treatment duration was estimated to be 42 months and a lost-to-follow-up rate of 1% per year. Assuming a 3.59% annual event rate in the placebo group, enrollment of 12,600 patients was required, subsequently amended to 14,000. There were no interim efficacy analyses. A hierarchical approach was prespecified to evaluate sequentially each of the six key secondary efficacy end points with statistical significance at each step required to test the next hypothesis, thereby preserving the study-wise Type I error rate at 5%. All analyses were based on the intent-to-treat principle. The primary efficacy end point was analyzed using Cox proportional hazards model with treatment as a factor to generate the hazard ratio (HR) and 95% confidence interval (CI). The p-value was obtained from a log-rank test.

[2] = system: statin-intolerant patients with or at high risk of CVD; test: CLEAR OUTCOMES trial (Example 1): adverse events and safety laboratory findings; type: in vivo, human
Text: as §1, §2, §3

[3] = baseline mean 139.0 mg/dL, full population
[4] = at any visit, repeated and confirmed, N = 7001

## CC(C)(CCCCCC(O)CCCCCC(C)(C)C(=O)O)C(=O)O [Bempedoic Acid, Bempedoic acid]
[1]; [3]
  placebo-subtracted reduction in LDL-cholesterol after 6 months of treatment: 29.2 mg/dL
  placebo-subtracted reduction in LDL-cholesterol after 6 months of treatment, percent: 21.1%
[1]; bempedoic acid vs placebo
  Change from baseline to month 12 in HbA1C in patients with inadequately controlled type 2 diabetes mellitus, Difference: −0.03%
[1]; observed mean ± SD
  Change from baseline to Month 6 in HbA1c (%), All patients: −0.003 ± 0.6^ %
  Change from baseline to Month 6 in HbA1c (%), Inadequately Controlled Diabetes at Baseline: −0.20 ± 1.0%
  Change from baseline to Month 12 in HbA1c (%), All patients: 0.04 ± 0.74%
  Change from baseline to Month 12 in HbA1c (%), Inadequately Controlled Diabetes at Baseline: −0.06 ± 1.3%
[1]; prior to initial administration as baseline
  decrease in LDL-C as compared to baseline: about 21%
[1]; vs placebo, over the trial, full population
  time-averaged reduction in LDL-cholesterol, percent: 15.9%
[2]; 180 mg oral daily
  New onset diabetes in patients with normoglycemia at baseline, %: 5.5%
  New onset diabetes in patients with pre-diabetes at baseline, %: 19.5%
[2]; 180 mg oral daily, N = 7001
  Adjudicated tendon rupture, %: 1.2%
  Adverse event leading to drug discontinuation, %: 11.0%
  Any muscle disorder, %: 15.0%
  Any treatment emergent adverse event, %: 86.3%
  Atrial fibrillation, %: 3.3%
  Cholelithiasis, %: 2.2%
  Discontinuation of treatment due to myalgia, %: 1.8%
  Elevated hepatic enzymes, %: 4.5%
  Gout, %: 3.1%
  Hypoglycemia, %: 4.3%
  Malignancies, %: 4.7%
  Metabolic acidosis, %: 0.2%
  Myalgia, %: 5.6%
  Neurocognitive disorders, %: 0.8%
  Serious treatment emergent adverse event, %: 25.4%
  Tendinopathies, %: 1.7%
[2]; after 6 months
  Change from baseline in creatinine levels: 0.05 ± 0.2 mg/dL
  Change from baseline in uric acid levels: 0.76 ± 1.2 mg/dL
[2]; at any visit, N = 7001
  Creatine kinase levels >5x ULN (repeated and confirmed), %: 0.1%
  Creatine kinase levels >5x ULN (single occurrence), %: 0.6%
[2]; [4]
  Alanine aminotransferase level >3 times ULN, %: 1.2%
  Aspartate aminotransferase level >3 times ULN, %: 1.1%
[2]; bempedoic acid-treated patients, full population
  Premature discontinuation of study drug: 29.1%
[2]; in patients with diabetes at baseline
  Worsening hyperglycemia, %: 22.7%
[2]; investigator-reported, 180 mg oral daily
  New onset diabetes in patients without diabetes at baseline, %: 16.1%
[2]; rates of discontinuation for any reason similar to placebo
  tolerability of treatment: well tolerated
